Holding throughout (assay type): cell-based
For experiment [1], the target named is T1, B^0AT1 (Homo sapiens, UniProt Q695T7).
T1 construct: expressed in transfected cells
T1 sequence (Q695T7 1-634): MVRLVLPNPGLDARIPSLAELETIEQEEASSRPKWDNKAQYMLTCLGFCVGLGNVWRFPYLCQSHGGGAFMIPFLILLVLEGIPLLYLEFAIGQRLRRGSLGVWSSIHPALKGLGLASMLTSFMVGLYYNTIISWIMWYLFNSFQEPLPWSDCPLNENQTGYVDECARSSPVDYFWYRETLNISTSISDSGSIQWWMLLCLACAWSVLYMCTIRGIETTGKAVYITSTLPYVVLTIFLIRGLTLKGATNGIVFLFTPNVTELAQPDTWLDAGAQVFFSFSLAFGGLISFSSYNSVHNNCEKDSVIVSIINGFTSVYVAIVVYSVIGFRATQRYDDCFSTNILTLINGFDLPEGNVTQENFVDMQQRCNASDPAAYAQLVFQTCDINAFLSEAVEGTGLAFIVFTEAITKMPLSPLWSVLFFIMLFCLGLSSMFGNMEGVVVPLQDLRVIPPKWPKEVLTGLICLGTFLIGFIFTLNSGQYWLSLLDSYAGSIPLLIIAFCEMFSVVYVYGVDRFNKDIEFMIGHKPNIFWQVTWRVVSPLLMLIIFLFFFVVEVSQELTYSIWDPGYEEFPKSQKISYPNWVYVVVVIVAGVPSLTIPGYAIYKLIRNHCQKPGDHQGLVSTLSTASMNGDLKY
T1 sequence (Q9HBJ8 15-222 partner): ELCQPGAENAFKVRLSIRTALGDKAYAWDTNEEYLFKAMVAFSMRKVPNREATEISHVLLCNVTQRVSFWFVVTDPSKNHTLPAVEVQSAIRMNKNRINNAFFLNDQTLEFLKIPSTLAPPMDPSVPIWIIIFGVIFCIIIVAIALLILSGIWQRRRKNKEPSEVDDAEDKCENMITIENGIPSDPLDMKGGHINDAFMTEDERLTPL
The experiment in a line: FLIPR assay with inhibitors alone in the absence of substrate (substrate test) in CHO-BC cells. The settings on record: 30 μM, baseline 100 RFU. The protocol:
Membrane depolarisation induced by amino acid transport was monitored using a FLIPR® kit (Molecular Devices, R8042 BLUE DYE). Before the assay, CHO-BC cells were seeded out at a density of 60,000 cells/well and maintained in a flat transparent bottom 96-well plate (Corning) overnight. After washing three times with Hank’s balanced salt solution (136.6 mM NaCl, 5.4 mM KCl, 0.44 mM KH2PO4, 2.7mM Na2HPO4, 1.26mM CaCl2, 0.5mM MgCl2, 0.4 mM MgSO4, 10mM HEPES, pH 7.5, supplemented with 5 mM glucose, abbreviated HBSS + G), cells in each well were incubated for 30 min at room temperature in 50 µl of HBSS pH 7.5 containing 5 mM glucose and compounds as indicated, together with 50 µl of dye-loading buffer provided with the kit. […] Fluorescence was detected at room temperature using a PerkinElmer multimode Plate Reader, with an excitation wavelength of 530 nm and emission wavelength of 565 nm.
Figure 6 Specificity and efficacy of B^0AT1 inhibitors. […] Although structurally unrelated to the substrates of the transporter, compounds E4, E18, and CB3 are highly specific.

For experiment [2], the target named is T1, B^0AT1. In words: Membrane potential detecting FLIPR assay in CHO-BC cells. The settings on record: 30 min pre-incubation, leucine or isoleucine 1.5 mM. The protocol: CHO-B^0AT1-collectrin Cells (CHO-BC) were generated, cultured, and used as described recently ([Cheng et al., 2017]). Expression levels of B^0AT1 in CHO-BC cells decline over time. As a result, passages <10 were used for experiments. The cells were maintained in Ham’s F-12 glutamax media with 10% (v/v) fetal bovine serum (FBS, Heat inactivated, 10082147 Gibco), 1mM glutamine, 300μg/ml hygromycin B and 275 μg/ml geneticin.
Membrane depolarisation induced by amino acid transport was monitored using a FLIPR® kit (Molecular Devices, R8042 BLUE DYE). Before the assay, CHO-BC cells were seeded out at a density of 60,000 cells/well and maintained in a flat transparent bottom 96-well plate (Corning) overnight. After washing three times with Hank’s balanced salt solution (136.6 mM NaCl, 5.4 mM KCl, 0.44 mM KH2PO4, 2.7mM Na2HPO4, 1.26mM CaCl2, 0.5mM MgCl2, 0.4 mM MgSO4, 10mM HEPES, pH 7.5, supplemented with 5 mM glucose, abbreviated HBSS + G), cells in each well were incubated for 30 min at room temperature in 50 µl of HBSS pH 7.5 containing 5 mM glucose and compounds as indicated, together with 50 µl of dye-loading buffer provided with the kit. Subsequently, the fluorescence signal was detected every 10 s before and after the addition of leucine or isoleucine at a final concentration of 1.5 mM. Fluorescence was detected at room temperature using a PerkinElmer multimode Plate Reader, with an excitation wavelength of 530 nm and emission wavelength of 565 nm.
(§1) Data are shown as mean ± S.D., transport activities indicated as Na^+-dependent net uptake, were calculated by subtracting the uptake activity in the absence of Na^+ from the total uptake rate. The fluorescent signals measured in the FLIPR assay were normalized to baseline readings before the addition of substrates. Data are presented as percentage of baseline at each time point. IC50 was calculated using the equation: y=ymax(1−[x]/[x]+IC50) .

Experiment [3] has as its target T1, B^0AT1. The experiment in a line: Radioactive flux assay (radiolabelled leucine/isoleucine uptake) in CHO-BC cells. The settings on record: 150 μM [14C]leucine or [14C]isoleucine, 6 min, 37°C. The protocol: CHO-BC cells with passage numbers from 3 to 10 were used in radio-labelled uptake assays. Before the assay, the cells were seeded out in 35 mm dishes (Corning) and maintained for 48–72 h until reaching 80–90% confluence. To initiate transport, the culture medium was removed and the cells washed three times with HBSS + G. Subsequently, cells were incubated with HBSS + G, radiolabelled substrates (150 μM L-[U-^14C]leucine or 150 μM L-[U-^14C]isoleucine) and inhibitors as indicated in the figures or table in a 37°C water bath for 6 min. To terminate transport, cells were washed three times with ice-cold HBSS pH 7.5. For measuring sodium-independent uptake, NaCl in Hank’s buffer was replaced by NMDG-Cl. Cells were then harvested by homogenizing with 500 µl of 0.1 M HCl. An aliquot of 400 µl was used for scintillation counting and the remainder for protein quantification. To investigate inhibition of ASCT2, uptake of 100 μM [^14C]glutamine was measured in 143B cells in the absence and presence of inhibitor (at 10 μM and 50 μM). To measure inhibition of LAT1, uptake of [^14C]leucine was measured in HBSS + G in which NaCl was replaced by NMDG-Cl in 143B cells in the absence and presence of inhibitor (at 10 μM and 50 μM).
as §1

Structures are written as SMILES.

Regarding `Cc1cc(C(=O)Nc2ccc(Cl)cc2C(F)(F)F)no1` [CB3], the “Fluorescence signal when tested alone (no substrate)” value (“Fluorescence signal … (no substrate)” below) at B^0AT1 [1] was “did not increase fluorescence above the baseline”. Further, the IC50 against B^0AT1 [2] worked out at 1.9 ± 0.6 µM; at B^0AT1 [3] it was 4.9 ± 0.4 µM.

Turning to `Cc1cc(OCC(=O)NC(C)C)cc(C)c1Cl` [Compound E4], the “Fluorescence signal … (no substrate)” value on B^0AT1 [1] is “did not increase fluorescence above the baseline”. Further, the IC50 against B^0AT1 [2] stood at 13.7 ± 0.9 µM; on B^0AT1 [3] it was 7.7 ± 1.9 µM.

Take `COc1ccccc1Nc1nc2ccccc2s1` [Compound E18]: the “Fluorescence signal … (no substrate)” value on B^0AT1 [1] was “did not increase fluorescence above the baseline”. Moreover, the IC50 is 4.2 ± 0.9 µM at B^0AT1 [2] and 3.4 ± 0.3 µM on B^0AT1 [3].

Broadly, the IC50 is the concentration that inhibits the measured activity by half.
